Experimental data reported in patent US20210045385A1, “PYRIDAZINONE-SUBSTITUTED KETOXIMES AS HERBICIDES” (FMC Corporation, priority 2018, published 2021).

Experiments:
Assay type in all cases: in vivo
[1] = system: ducksalad (Heteranhera limosa); experiment: Test B flooded paddy test, visual plant response rating; details: 250 g ai/ha, Flood, applied to paddy water, 2-leaf stage, evaluated after 13 to 15 days
Summary of the method: (§1)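 Seedlings at 2 leaves; compound into paddy water (3 cm flood, maintained); 13–15 d greenhouse; visual score relative to controls.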

rice (Oryza sativa) = experiment: as above; details: 250 g ai/ha, Flood, applied to paddy water, 2-leaf stage, evaluated after 13 to 15 days
Summary of the method: as §1

[2] = system: barnyardgrass (Echinochloa crus-galli); experiment: as above; details: 250 g ai/ha, Flood, applied to paddy water, 2-leaf stage, evaluated after 13 to 15 days
Summary of the method: as §1

[3] = system: sedge, umbrella (small-flower umbrella sedge, Cyperus difformis); experiment: as above; details: 250 g ai/ha, Flood, applied to paddy water, 2-leaf stage, evaluated after 13 to 15 days
Summary of the method: as §1

[4] = system: foxtail, green (green foxtail, Setaria viridis); experiment: Test A postemergence, visual plant response rating; details: for Foxtail, Green plant response rating (0 to 100 scale): 500 g ai/ha, postemergence, 0 is no effect, 100 is complete control; for Foxtail, Green plant response rating: Postemergence, 125 g ai/ha, 0 to 100 scale (0 no effect, 100 complete control)
Summary of the method: (§2)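 Compared with untreated controls, treated plants received a visual injury score on a 0–100 scale around 10 days after application. The compound, in a non-phytotoxic solvent with surfactant, was given as a preemergence soil spray or postemergence at the one- to two-leaf stage.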

[5] = system: pigweed (Amaranthus retroflexus); experiment: Test A postemergence, visual plant response rating; details: for Pigweed plant response rating (0 to 100 scale): 500 g ai/ha, postemergence, 0 is no effect, 100 is complete control; for Pigweed plant response rating: Postemergence, 125 g ai/ha, 0 to 100 scale (0 no effect, 100 complete control)
Summary of the method: as §2

corn (Zea mays) = experiment: Test A postemergence, visual plant response rating; details: for Corn plant response rating (0 to 100 scale): 500 g ai/ha, postemergence, 0 is no effect, 100 is complete control; for Corn plant response rating: Postemergence, 125 g ai/ha, 0 to 100 scale (0 no effect, 100 complete control)
Summary of the method: as §2

[6] = system: ragweed (common ragweed, Ambrosia elatior); experiment: Test A postemergence, visual plant response rating; details: for Ragweed plant response rating (0 to 100 scale): 500 g ai/ha, postemergence, 0 is no effect, 100 is complete control; for Ragweed plant response rating: Postemergence, 125 g ai/ha, 0 to 100 scale (0 no effect, 100 complete control)
Summary of the method: as §2

[7] = system: barnyardgrass (Echinochloa crus-galli); experiment: Test A postemergence, visual plant response rating; details: for Barnyardgrass plant response rating (0 to 100 scale): 500 g ai/ha, postemergence, 0 is no effect, 100 is complete control; for Barnyardgrass plant response rating: Postemergence, 125 g ai/ha, 0 to 100 scale (0 no effect, 100 complete control)
Summary of the method: as §2

[8] = system: galium (catchweed bedstraw, Galium aparine); experiment: Test A postemergence, visual plant response rating; details: for Galium plant response rating (0 to 100 scale): 500 g ai/ha, postemergence, 0 is no effect, 100 is complete control; for Galium plant response rating: Postemergence, 125 g ai/ha, 0 to 100 scale (0 no effect, 100 complete control)
Summary of the method: as §2

[9] = system: Italian ryegrass (Lolium multiflorum); experiment: Test A postemergence, visual plant response rating; details: for Ryegrass, Italian plant response rating (0 to 100 scale): 500 g ai/ha, postemergence, 0 is no effect, 100 is complete control; for Ryegrass, Italian plant response rating: Postemergence, 125 g ai/ha, 0 to 100 scale (0 no effect, 100 complete control)
Summary of the method: as §2

[10] = system: blackgrass (Alopecurus myosuroides); experiment: Test A postemergence, visual plant response rating; details: for Blackgrass plant response rating (0 to 100 scale): 500 g ai/ha, postemergence, 0 is no effect, 100 is complete control; for Blackgrass plant response rating: Postemergence, 125 g ai/ha, 0 to 100 scale (0 no effect, 100 complete control)
Summary of the method: as §2

kochia (Kochia scoparia) [11] = experiment: Test A postemergence, visual plant response rating; details: for Kochia plant response rating (0 to 100 scale): 500 g ai/ha, postemergence, 0 is no effect, 100 is complete control; for Kochia plant response rating: Postemergence, 125 g ai/ha, 0 to 100 scale (0 no effect, 100 complete control)
Summary of the method: as §2

[12] = system: wheat (Triticum aestivum); experiment: Test A postemergence, visual plant response rating; details: for Wheat plant response rating (0 to 100 scale): 500 g ai/ha, postemergence, 0 is no effect, 100 is complete control; for Wheat plant response rating: Postemergence, 125 g ai/ha, 0 to 100 scale (0 no effect, 100 complete control)
Summary of the method: as §2

[13] = system: foxtail, green (green foxtail, Setaria viridis); experiment: Test A preemergence, visual plant response rating; details: approx. 10 days
Summary of the method: as §2

[14] = system: pigweed (Amaranthus retroflexus); experiment: Test A preemergence, visual plant response rating; details: approx. 10 days
Summary of the method: as §2

[15] = system: ragweed (common ragweed, Ambrosia elatior); experiment: Test A preemergence, visual plant response rating; details: approx. 10 days
Summary of the method: as §2

[16] = system: barnyardgrass (Echinochloa crus-galli); experiment: Test A preemergence, visual plant response rating; details: approx. 10 days
Summary of the method: as §2

[17] = system: Italian ryegrass (Lolium multiflorum); experiment: Test A preemergence, visual plant response rating; details: approx. 10 days
Summary of the method: as §2

kochia (Kochia scoparia) [18] = experiment: Test A preemergence, visual plant response rating; details: approx. 10 days
Summary of the method: as §2

Row | Compound | Plant response rating, Ducksalad (0 to 100 scale, 0 is no effect, 100 is complete control) [1] | Plant response rating, Rice (0 to 100 scale, 0 is no effect, 100 is complete control) (rice (Oryza sativa)) | Plant response rating, Barnyardgrass (0 to 100 scale, 0 is no effect, 100 is complete control) [2] | Plant response rating, Sedge, Umbrella (0 to 100 scale, 0 is no effect, 100 is complete control) [3] | Foxtail, Green plant response rating (0 to 100 scale) [4] | Foxtail, Green plant response rating [4] | Pigweed plant response rating (0 to 100 scale) [5] | Pigweed plant response rating [5] | Corn plant response rating (0 to 100 scale) (corn (Zea mays)) | Corn plant response rating (corn (Zea mays)) | Ragweed plant response rating (0 to 100 scale) [6] | Ragweed plant response rating [6] | Barnyardgrass plant response rating (0 to 100 scale) [7] | Barnyardgrass plant response rating [7] | Galium plant response rating (0 to 100 scale) [8] | Galium plant response rating [8] | Ryegrass, Italian plant response rating (0 to 100 scale) [9] | Ryegrass, Italian plant response rating [9] | Blackgrass plant response rating (0 to 100 scale) [10] | Blackgrass plant response rating [10] | other results
1 | CO/N=C(/c1cccc(C)c1)c1c(O)c(C2CC2)nn(C)c1=O [Compound 28] | 0 | 0 | 0 | 0 | 10 | 0 | 40 | 30 | 0 | 0 | 40 | 0 | 30 | 0 | 60 | 20 | 10 | 0 | 40 | 0 | Kochia plant response rating (0 to 100 scale) (kochia (Kochia scoparia) [11]): 0; Kochia plant response rating (kochia (Kochia scoparia) [11]): 0; Wheat plant response rating (0 to 100 scale) [12]: 0; Wheat plant response rating [12]: 0; Foxtail, Green plant response rating (0 to 100 scale) ([13]; 125 g ai/ha Preemergence): 0; Foxtail, Green plant response rating (0 to 100 scale) ([13]; 500 g ai/ha Preemergence): 30; Pigweed plant response rating (0 to 100 scale) ([14]; 125 g ai/ha Preemergence): 0; Pigweed plant response rating (0 to 100 scale) ([14]; 500 g ai/ha Preemergence): 10; Ragweed plant response rating (0 to 100 scale) ([15]; 125 g ai/ha Preemergence): 0; Ragweed plant response rating (0 to 100 scale) ([15]; 500 g ai/ha Preemergence): 10; Barnyardgrass plant response rating (0 to 100 scale) ([16]; 125 g ai/ha Preemergence): 0; Barnyardgrass plant response rating (0 to 100 scale) ([16]; 500 g ai/ha Preemergence): 0; Ryegrass, Italian plant response rating (0 to 100 scale) ([17]; 125 g ai/ha Preemergence): 0; Ryegrass, Italian plant response rating (0 to 100 scale) ([17]; 500 g ai/ha Preemergence): 0; Kochia plant response rating (0 to 100 scale) (kochia (Kochia scoparia) [18]; 125 g ai/ha Preemergence): 0; Kochia plant response rating (0 to 100 scale) (kochia (Kochia scoparia) [18]; 500 g ai/ha Preemergence): 0
2 | CO/N=C(/c1cc(C)ccc1C)c1c(O)c(C)nn(C)c1=O [Compound 30] | 0 | 0 | 0 | 0 | 40 | 0 | 50 | 30 | 0 | 0 | 60 | 40 | 40 | 20 | 80 | 60 | 70 | 40 | 80 | 10 | Kochia plant response rating (0 to 100 scale) (kochia (Kochia scoparia) [11]): 30; Kochia plant response rating (kochia (Kochia scoparia) [11]): 10; Wheat plant response rating (0 to 100 scale) [12]: 30; Wheat plant response rating [12]: 10; Foxtail, Green plant response rating (0 to 100 scale) ([13]; 125 g ai/ha Preemergence): 0; Foxtail, Green plant response rating (0 to 100 scale) ([13]; 500 g ai/ha Preemergence): 60; Pigweed plant response rating (0 to 100 scale) ([14]; 125 g ai/ha Preemergence): 30; Pigweed plant response rating (0 to 100 scale) ([14]; 500 g ai/ha Preemergence): 80; Ragweed plant response rating (0 to 100 scale) ([15]; 125 g ai/ha Preemergence): 20; Ragweed plant response rating (0 to 100 scale) ([15]; 500 g ai/ha Preemergence): 70; Barnyardgrass plant response rating (0 to 100 scale) ([16]; 125 g ai/ha Preemergence): 0; Barnyardgrass plant response rating (0 to 100 scale) ([16]; 500 g ai/ha Preemergence): 50; Ryegrass, Italian plant response rating (0 to 100 scale) ([17]; 125 g ai/ha Preemergence): 20; Ryegrass, Italian plant response rating (0 to 100 scale) ([17]; 500 g ai/ha Preemergence): 50; Kochia plant response rating (0 to 100 scale) (kochia (Kochia scoparia) [18]; 125 g ai/ha Preemergence): 0; Kochia plant response rating (0 to 100 scale) (kochia (Kochia scoparia) [18]; 500 g ai/ha Preemergence): 30
